{"source": "patent US20050288323A1", "about": "“Octahydro-indolizine and quinolizine and hexahydro-pyrrolizine” (priority 2000, published 2005)", "data": [{"target": "T1, human histamine H3 receptor (Homo sapiens, UniProt Q9Y5N1)", "T1 construct": "One microgram of supercoiled H3 receptor cDNA was added to the cells and mixed; expressed in transfected cells; membranes", "T1 sequence (Q9Y5N1 whole entry)": "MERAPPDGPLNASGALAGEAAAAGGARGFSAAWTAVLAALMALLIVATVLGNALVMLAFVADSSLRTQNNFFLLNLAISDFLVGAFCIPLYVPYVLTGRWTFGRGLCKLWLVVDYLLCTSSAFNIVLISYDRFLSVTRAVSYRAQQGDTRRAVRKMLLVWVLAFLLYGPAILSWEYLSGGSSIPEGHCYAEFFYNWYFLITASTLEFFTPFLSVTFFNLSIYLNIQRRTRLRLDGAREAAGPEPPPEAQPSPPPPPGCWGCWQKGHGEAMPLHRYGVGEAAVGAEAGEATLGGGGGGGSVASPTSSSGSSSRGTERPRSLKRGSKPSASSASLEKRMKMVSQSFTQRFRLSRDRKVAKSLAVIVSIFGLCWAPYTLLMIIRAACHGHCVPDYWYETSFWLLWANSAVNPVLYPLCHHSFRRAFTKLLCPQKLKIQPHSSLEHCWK", "experiment": "[3H]-N-methylhistamine binding", "conditions": "Table 1; [3H]-N-methylhistamine binding", "protocol": "(§1) Thus in the present invention receptor binding was determined using the human histamine H3 receptor (See Lovenberg et al Mol. Pharmacol. 1999, 1107). Screening using the human receptor is particularly important for the identification of new therapies for the treatment of human disease. Conventional binding assays for example are determined using rat synaptosomes (Garbarg et al J. Pharmacol. Exp. Ther. 1992, 263, 304), rat cortical membranes (West et al Mol. Pharmacol. 1990, 610), and guinea pig brain (Korte et al Biochem. Biophys. Res. Commun. 1990, 978). Only limited studies have been performed previously using human tissue but these allude to significant differences in the pharmacology of rodent and primate receptors (West et al Eur. J. Pharmacol. 1999, 233).\n(§2) Transfection of Cells with Human Histamine Receptor\n(§3) A 10 cm tissue culture dish with a confluent monolayer of SK-N-MC cells was split two days prior to transfection. Using sterile technique the media was removed and the cells were detached from the dish by the addition of trypsin. One fifth of the cells were then placed onto a new 10 cm dish. Cells were grown in a 37° C. incubator with 5% CO2 in Minimal Essential Media Eagle with 10% Fetal Bovine Serum. After two days cells were approximately 80% confluent. These were removed from the dish with trypsin and pelleted in a clinical centrifuge. The pellet was then re-suspended in 400 μL complete media and transferred to an electroporation cuvette with a 0.4 cm gap between the electrodes (Bio-Rad #165-2088). One microgram of supercoiled H3 receptor cDNA was added to the cells and mixed. The voltage for the electroporation was set at 0.25 kV, the capacitance was set at 960 μF. After electroporation the cells were diluted into 10 mL complete media and plated onto four 10 cm dishes. Because of the variability in the efficiency of electroporation, four different concentrations of cells were plated. The ratios used were; 1:20, 1:10, 1:5, with the remainder of the cells being added to the fourth dish. The cells were allowed to recover for 24 hours before adding the selection media (complete media with 600 μg/mL G418). After 10 days dishes were analyzed for surviving colonies of cells. Dishes with well isolated colonies were used. Cells from individual colonies were isolated and tested. SK-N-MC cells were used because they give efficient coupling for inhibition of adenylate cyclase. The clones that gave the most robust inhibition of adenylate cyclase in response to histamine were used for further study.\n(§4) [^3H]-N-methylhistamine Binding\n(§5) Cell pellets from histamine H3 receptor-expressing SK-N-MC cells were homogenized in 20 mM TrisHCl/0.5 mM EDTA. Supernatants from a 800 g spin were collected, recentrifuged at 30,000 g for 30 minutes. Pellets were re-homogenized in 50 mM Tris/5 mM EDTA (pH 7.4). Membranes were incubated with 0.8 nM [^3H]-N-methylhistamine plus/minus test compounds for 45 min at 25° C. and harvested by rapid filtration over GF/C glass fiber filters (pretreated with 0.3% polyethylenimine) followed by four washes with ice cold buffer. Filters were dried, added to 4 mL scintillation cocktail and then counted on a liquid scintillation counter. Non-specific binding was defined with 10 μM histamine. The pKi values were calculated based on a Kd of 800 pM and a ligand concentration ([L]) of 800 pM according to the formula: Ki=(IC50)/(1+([L]/(Kd))", "units": {"Ki": "nM"}, "values": [{"compound": "CN(C)CCCOc1ccc([C@H]2CC[C@H]3CCCCN32)cc1", "note": "(racemic) [Example 17, Dimethyl-{3-[4-(octahydro-indolizin-3-yl)-phenoxy]-propyl}-amine]", "Ki": 10}]}, {"target": "T1, human histamine H3 receptor", "experiment": "[3H]-N-methylhistamine binding", "conditions": "Table 3; [3H]-N-methylhistamine binding", "protocol": "as §1, §2, §3, §4, §5", "units": {"Ki": "nM"}, "values": [{"compound": "O=Cc1ccc(-c2ccc([C@H]3CC[C@H]4CCCCN43)cc2)cc1", "note": "(racemic) [Example 52]", "Ki": 221}, {"compound": "O=Cc1ccsc1-c1ccc([C@H]2CC[C@H]3CCCCN32)cc1", "note": "(racemic) [Example 51]", "Ki": 132}, {"compound": "c1cc(-c2ccc([C@H]3CC[C@H]4CCCCN43)cc2)cs1", "note": "(racemic) [Example 49]", "Ki": 503}]}, {"target": "T1, human histamine H3 receptor", "experiment": "[3H]-N-methylhistamine binding", "conditions": "Table 5; [3H]-N-methylhistamine binding", "protocol": "as §1, §2, §3, §4, §5", "units": {"Ki": "nM"}, "values": [{"compound": "c1coc(CNc2ccc([C@H]3CC[C@H]4CCCCN43)cc2)c1", "note": "(racemic) [Example 130]", "Ki": 647}, {"compound": "c1ccc(CN(Cc2ccccc2)c2ccc([C@H]3CC[C@H]4CCCCN43)cc2)cc1", "note": "(racemic) [Example 135]", "Ki": 3950}, {"compound": "c1cncc(CNc2ccc([C@H]3CC[C@H]4CCCCN43)cc2)c1", "note": "(racemic) [Example 127]", "Ki": 589}]}, {"target": "T1, human histamine H3 receptor", "experiment": "[3H]-N-methylhistamine binding", "conditions": "[3H]-N-methylhistamine 0.8 nM, membranes of H3 receptor-expressing SK-N-MC cells", "protocol": "as §1, §2, §3, §4, §5", "units": {"Ki": "nM"}, "values": [{"compound": "c1cc([C@H]2CC3CCCCN3C2)ccc1OCCCN1CCCCC1", "note": "(mixture of isomers) [Example 68, anti-2-(4-(3-Piperidinylpropoxy)phenyl)octahydroindolizine]", "Ki": 0.2}, {"compound": "O=S(=O)(Nc1ccc([C@@H]2CC[C@@H]3CCCCN32)cc1)C1CCCNC1", "note": "(relative stereo) [Example 117, trans-3-[4-(3-Piperidylsulfonylamino)phenyl]octahydroindolizine]", "Ki": 4}, {"compound": "O=[N+]([O-])c1ccc(Oc2ccc([C@H]3CC[C@H]4CCCCN43)cc2)cc1", "note": "(racemic) [Example 77, trans-3-[4-(4-Nitrophenoxy)phenyl]octahydroindolizine]", "Ki": 1560}, {"compound": "trans-3-[4-(Vinylsulfonylamino)phenyl]octahydroindolizine [Example 119]", "Ki": "> 5000"}, {"compound": "c1cc(Sc2ccc([C@@H]3CC[C@@H]4CCCCN43)cc2)ccn1", "note": "[Example 138, (S, S)-Octahydro-3-[4-(4-pyridinylthio)phenyl]indolizine]", "Ki": 100}, {"compound": "O=C(c1ccc(Cl)cc1)c1ccc([C@H]2CC[C@H]3CCCCN32)cc1", "note": "(racemic) [Example 124, trans-3-{4-[(4-Chlorophenyl)methan-1-oxo]phenyl}octahydroindolizine]", "Ki": 368}, {"compound": "CS(=O)(=O)Nc1ccc([C@@H]2CC[C@@H]3CCCCN32)cc1", "note": "(relative stereo) [Example 97, trans-3-(4-(Methylsulfonylamino)phenyl)octahydroindolizine]", "Ki": 481}, {"compound": "c1cc([C@@H]2CCC[C@@H]3CCCN32)ccc1OCCN1CCCCC1", "note": "(racemic) [Example 63, 5-[4-(2-Piperidinylethanoxy)phenyl]octahydroindolizine]", "Ki": 5}, {"compound": "FC(F)(F)Oc1ccc(-c2ccc([C@H]3CC[C@H]4CCCCN43)cc2)cc1", "note": "(relative stereo) [Example 47, trans-3-[4-(4-Trifluromethoxyphenyl)phenyl]octahydroindolizine]", "Ki": 1220}, {"compound": "CN(C(=O)CCCCN1CCCCC1)c1ccc([C@H]2CC[C@H]3CCCCN32)cc1", "note": "(racemic) [Example 113, trans-3-[4-(N-Methyl-N-5-piperidylpentanamido)phenyl]octahydroindolizine]", "Ki": 63}, {"compound": "FC(F)(F)CN1CCCCC1CCOc1ccc([C@H]2CC[C@H]3CCCCN32)cc1", "note": "(mixture of isomers) [Example 89, trans-3-{4-[2,2′-(N-Trifluoroethylpiperidinyl)ethoxy]phenyl}octahydroindolizine]", "Ki": 47}, {"compound": "trans-3-{4-[(2-Pyrrolidylethyl)sulfonylamino]phenyl}octahydroindolizine [Example 122]", "Ki": 534}, {"compound": "Oc1ccc([C@@H]2CCC[C@@H]3CCCN32)cc1", "note": "(racemic) [Example 60, 5-(4-Hydroxyphenyl)octahydroindolizine]", "Ki": 1400}, {"compound": "c1cc(C2CCC3CCCN32)ccc1OCCCN1CCCCC1", "note": "(stereo not shown) [Example 140, 3-[4-(Piperidinylpropoxy)phenyl]hexahydro-1H-pyrrolizine]", "Ki": 0.6}, {"compound": "c1cc(C2CC3CCCCN3C2)ccc1OCCCN1CCCCC1", "note": "(stereo not drawn) [Example 69, syn-2-[4-(3-Piperidinylpropanoxy)phenyl]octahydroindolizine]", "Ki": 0.2}, {"compound": "Nc1ccc(Sc2ccc([C@@H]3CCC[C@@H]4CCCN43)cc2)cc1", "note": "(racemic) [Example 39, 5-(4-(4-Aminophenylthio)phenyl)octahydroindolizine]", "Ki": 75}, {"compound": "O=S(=O)(CCN1CCCCC1)Nc1ccc([C@H]2CC[C@H]3CCCCN32)cc1", "note": "(racemic) [Example 120, trans-3-{4-[(2-Piperidylethyl)sulfonyl]amidophenyl}octahydroindolizine]", "Ki": 11}, {"compound": "Nc1ccc(Oc2ccc([C@H]3CC[C@H]4CCCCN43)cc2)cc1", "note": "(racemic) [Example 78, trans-3-[4-(4-Aminophenoxy)phenyl]octahydroindolizine]", "Ki": 296}, {"compound": "Brc1ccc([C@H]2CC[C@H]3CCCCN32)cc1", "note": "(racemic) [Example 1, trans-3-(4-bromophenyl)octahydroindolizine]", "Ki": 325}, {"compound": "O=C(CCCN1CCCCC1)Nc1ccc([C@@H]2CC[C@@H]3CCCCN32)cc1", "note": "(relative stereo) [Example 111, trans-3-[4-(N-4-Piperidylbutanamido)phenyl]octahydroindolizine]", "Ki": 3}, {"compound": "CN(C)CCCOc1ccc([C@H]2CC[C@H]3CCCCN32)cc1", "note": "(racemic) [Example 17, Dimethyl-{3-[4-(octahydro-indolizin-3-yl)-phenoxy]-propyl}-amine]", "Ki": 9.5}, {"compound": "c1cc(OCCCN2CCCCC2)cc([C@H]2C[C@@H]3CCCCN3C2)c1", "note": "(racemic) [Example 72, anti-2-[3-(3-Piperidinylpropyloxy)phenyl]octahydroindolizine]", "Ki": 0.3}, {"compound": "c1cc([C@@H]2CC[C@@H]3CCCCN32)ccc1NCCCN1CCCCC1", "note": "(relative stereo) [Example 106, trans-3-[4-(N-3-Piperidylpropylamino)phenyl]octahydroindolizine]", "Ki": 1.5}, {"compound": "NCc1ccc(Sc2ccc([C@H]3CC[C@H]4CCCCN43)cc2)cc1", "note": "(racemic) [Example 44]", "Ki": 9}, {"compound": "c1ccc(N2CCN(Cc3ccc([C@H]4CC[C@H]5CCCCN54)cc3)CC2)cc1", "note": "(racemic) [Example 23, trans-3-[4-(N-Phenyl-1-piperazinylmethyl)phenyl]octahydroindolizine]", "Ki": 65}, {"compound": "c1cc([C@H]2CC[C@H]3CCCCN32)ccc1OCCCN1CCCCC1", "note": "(racemic) [Example 92, trans-3-(4-(3-Piperidinylpropoxy)phenyl)octahydroindolizine]", "Ki": 0.3}, {"compound": "c1cc([C@@H]2CCC[C@@H]3CCCN32)ccc1OCCCCN1CCCCC1", "note": "(racemic) [Example 62]", "Ki": 0.7}, {"compound": "CN(CCCCCN1CCCCC1)c1ccc([C@@H]2CC[C@@H]3CCCCN32)cc1", "note": "(relative stereo) [Example 114, trans-3-[4-(N-Methyl-N-5-piperidylpentylamino)phenyl]octahydroindolizine]", "Ki": 9}, {"compound": "CS(=O)(=O)Nc1cccc(-c2ccc([C@H]3CC[C@H]4CCCCN43)cc2)c1", "note": "[Example 55, tran-3-[4-(3-Methylsulfonylaminophenyl)phenyl]octahydroindolizine]", "Ki": 320}]}, {"target": "T1, human histamine H3 receptor", "experiment": "[3H]-N-methylhistamine binding", "conditions": "[3H]-N-methylhistamine binding; value printed under example heading without unit", "protocol": "as §1, §2, §3, §4, §5", "units": {"Ki": "nM"}, "values": [{"compound": "O/N=C\\c1ccsc1-c1ccc([C@H]2CC[C@H]3CCCCN32)cc1", "note": "(racemic) [Example 54, tran-3-[4-(3-hydroxyiminomethylthienyl)phenyl]octahydroindolizine]", "Ki": 1480}]}]}
